Patent US8889661B2 (Teva Pharmaceutical Industries, Ltd., priority 2010, dated 2014)

Key:
(NZBxNZW)F1 mice [1] = conditions: for proteinuria (PU): Week 12 observation, vs vehicle (water), laquinimod 25 mg/kg p.o. daily, CTX once weekly i.p., MW U test; for immune complex deposition (ICD) in kidney: end of experiment (12 weeks), vs vehicle, scoring and image analysis
Source text: Systemic Lupus Erythematosus (SLE) is a disorder of generalized autoimmunity characterized by defective T cell-mediated responses and the formation of a variety of antibodies reactive to self or altered self-antigens. SLE is mainly characterized by the presence of anti-DNA antibodies. Some of these auto-antibodies combine with the corresponding auto-antigens, forming immune complexes, either in the circulating blood or directly in tissues, resulting in severe damage. Glomerulonephritis induced by immune complexes is in fact the major cause of death in patients with SLE. (NZBxNZW)F1 are lupus-prone mice that develop an SLE-like disease spontaneously including anti-dsDNA antibodies (Abs), proteinuria and Immune Complex Deposits (ICD). The (NZBxNZW)F1 (NZB/W) murine model is the hallmark of spontaneous SLE.
MTX is an antimetabolite drug used in treatment of cancer and autoimmune diseases. It acts by inhibiting the metabolism of folic acid via the inhibition of dihydrofolate reductase and blocks DNA synthesis in rapidly proliferate cells. These actions include immunosuppression.
CTX was applied once weekly in a dose of […] i.p. MTX was applied 3 times a week p.o. at 35 μg/mouse.
Also, body weight changes were recorded weekly and at the end of experiment both kidneys were preserved, one for possible conventional histology and one for immune complex detection (ICD) in glomeruli. Evaluation of ICD was performed by scoring and by image analysis.
80 animals were involved in the study.

[2] = tested on: MRL/lpr lupus mouse model; test: Non-GLP in vivo evaluation of laquinimod in the MRL/lpr lupus mouse model; conditions: for kidney glomerulonephritis (histopathology) / salivary gland inflammation (histopathological scoring): laquinimod 5 mg/kg, vs vehicle; for kidney glomerulonephritis (histopathology): MMF 100 mg/kg p.o.; for salivary gland inflammation (histopathological scoring): MMF 100 mg/kg
Procedure: This study evaluates the efficacy of laquinimod in the MRL/lpr lupus mouse model.
Animals were monitored until their urine proteinuria reached >200 mg/dL at which time they were enrolled in the study.
Proteinuria, ankle and paw diameters, dsDNA autoantibody levels and survival were monitored during in life portion of the study. At termination, blood samples were harvested for determination of dsDNA autoantibody levels, spleens were harvested and weighed then processed to isolate splenocytes which were counted. Kidney, lung, skin, lymph node, salivary gland and joints were harvested, processed for histological examination and scored by a histopathologist blind to the treatments.

(NZBxNZW)F1 mice [3] = test: Survival dose response study of laquinimod in the (NZBxNZW)F1 model for SLE, 37 weeks; assay type: in vivo, mouse
Procedure: The positive control used was Cytoxan.
CTX was administered intraperitonealy once weekly, (200 μl/mouse). Blood samples were collected on Weeks 1, 5, 15 and 37. Serum samples were prepared for detection of anti-dsDNA antibodies. After 37 weeks (257 days) of treatment, mice were sacrificed.

[4] = in vivo; cited from earlier work
(NZBxNZW)F1 mice [5] = test: Confirmation of efficacy of laquinimod in the (NZBxNZW)F1 model for SLE, 13 weeks; assay type: in vivo, mouse
Procedure: CTX was administered intraperitonealy once weekly, (200 μl/mouse). Blood samples were collected on Weeks 1, 5, and 11. Serum samples were prepared for detection of anti-dsDNA antibodies. After 13 weeks of treatment, mice were sacrificed and immune complex deposits in their kidneys were evaluated.

[6] = tested on: active lupus nephritis patients; test: Phase IIa clinical trial of laquinimod in combination with standard of care (MMF and steroids) in active lupus nephritis; assay type: in vivo, human
Source text: Approximately 45 Systemic Lupus Erythematosus patients with active lupus nephritis (LN) are enrolled. [ISN/RPS 2003 classification of lupus nephritis—classes III (A or A/C), IV-S or IV-G (A or A/C), or class V—pure or in combination with class III or IV].
The overall study duration is up to 32 weeks, with the screening phase being up to 4 weeks, the treatment period being 24 weeks and the follow-up period being 4 weeks for all subjects who complete the 24-week treatment period or subjects who prematurely discontinue treatment prior to Week 24 visit.
Placebo arm—2 capsules of placebo. Mycophenolate Mofetil (MMF)
MMF tablets 500 mg. All treatment arms receive MMF at baseline and throughout the study to a target dose of 2 g/day.
Subjects are assessed for study eligibility up to 4 weeks prior to baseline. Eligible subjects are initially randomized in a 1:1 ratio into one of the following two treatment arms: • 1.
Upon approval, randomization into one of the following three treatment arms occurs in a ratio that allows for reaching an overall target enrollment of approximately 15 subjects per treatment arm. Drop-outs are not replaced. • 1.
In addition, all receive IV methylprednisolone 500 mg/day for 3 days followed by 40 mg/day oral prednisolone/prednisone, which is tapered to not more than 10 mg/day by the end of Week 20, on a fixed steroid tapering regimen).
Any of the following results in early termination from the study: • 1. Increase in serum creatinine without improvement in proteinuria from 8 weeks onward (confirmed by repeated measurement within 2 weeks), defined as: • a. Serum creatinine >1.3 mg/dL that is at least 25% higher than the baseline value; and • b. […] Doubling of protein to creatinine ratio compared to baseline and protein to creatinine ratio >3 from Week 8 onwards (confirmed by repeated measurement within 2 weeks. At least one of the measurements should be a 24 hours urine collection). Outcome Measures Response Definitions • 1. Complete response (CR)—protein to creatinine ratio <0.5 and [decreased serum creatinine by at least 25% compared to baseline or serum creatinine <1.3 mg/dL]. • 2. […] BILAG renal response is defined as change from renal A or B at baseline to C or D. • 4. BILAG Substantial Responder (SR) is defined as all systems at last observed value (LOV) are C or D/E providing at least one system is A or B at baseline. Clinical Effect Outcome Measure Renal—System 1. Proportion of Subjects with Complete or Partial Response at Week 24 and the Lack of Treatment Failure

[7] = daily oral 0.5 mg or 1 mg laquinimod with standard of care (MMF and steroids)
[8] = daily oral 0.5 mg or 1 mg laquinimod with standard of care, during the study period

CN(Cc1cnc2nc(N)nc(N)c2n1)c1ccc(C(=O)N[C@@H](CCC(=O)O)C(=O)O)cc1 [MTX, methotrexate]
animals died during the treatment period ((NZBxNZW)F1 mice [1]; 12 weeks treatment, 80 animals in the study): 2
symptoms (proteinuria and immune complex deposition in kidney) ((NZBxNZW)F1 mice [1]; MTX 35 μg/mouse p.o. 3 times a week, 12 weeks): failed to inhibit

CCN(C(=O)c1c(O)c2c(Cl)cccc2n(C)c1=O)c1ccccc1 [laquinimod]
proteinuria (PU) ((NZBxNZW)F1 mice [1]): significantly diminished
immune complex deposition (ICD) in kidney ((NZBxNZW)F1 mice [1]): significantly inhibited
bone resorption (joint histopathology) ([2]; both doses of laquinimod (1 and 5 mg/kg) vs vehicle): Significant reductions
salivary gland inflammation score, higher vs lower dose ([2]; laquinimod 5 mg/kg compared with 1 mg/kg): significantly lower score
cartilage damage (joint histopathology) ([2]; laquinimod 5 mg/kg vs vehicle): significant reduction
joint inflammation (histopathology) ([2]; laquinimod 5 mg/kg vs vehicle): significantly reduced
splenocytes as percent of total spleen cells ([2]; laquinimod 5 mg/kg vs vehicle): significant reduction
kidney glomerulonephritis (histopathology) [2]: significant reductions
salivary gland inflammation (histopathological scoring) [2]: significant reduction
measures during the in life phase (proteinuria, ankle and paw diameters, dsDNA autoantibody levels, survival) ([2]; laquinimod 1 or 5 mg/kg p.o., trends not significant except sporadic time points): trend toward dose dependent efficacy
progression of proteinuria ((NZBxNZW)F1 mice [3]; all doses of laquinimod (0.2, 1, 5, 25 mg/kg p.o. 5 days a week), vs vehicle): abrogated the progression of proteinuria
survival ((NZBxNZW)F1 mice [3]; all doses of laquinimod, 37 weeks): significant prolongation of survival
proteinuria, compared with positive control CTX ((NZBxNZW)F1 mice [3]; laquinimod doses of 1, 5 and 25 mg/kg): as effective as the positive control cyclophosphamide (CTX)
proteinuria ((NZBxNZW)F1 mice [3]; laquinimod lowest dose (printed 0.2 mg/ml), compared to the higher doses): abrogated proteinuria but not to the same extent
anti-dsDNA levels ((NZBxNZW)F1 mice [3]; serum, Weeks 1, 5, 15 and 37): dose dependent reduction in antibody levels over time
oral bioavailability [4]: high
anti-dsDNA levels ((NZBxNZW)F1 mice [5]; laquinimod 5 mg/kg): behaved similarly to the positive control CTX
immune complex deposits ((NZBxNZW)F1 mice [5]; laquinimod 5 mg/kg): behaved similarly to the positive control CTX
disease progression as measured by proteinuria ((NZBxNZW)F1 mice [5]; laquinimod 0.2 and 5 mg/kg p.o. 5 days a week, 13 weeks): abrogated disease progression
ICD (immune complex deposits) ((NZBxNZW)F1 mice [5]; laquinimod low dose 0.2 mg/kg): did not inhibit
anti-dsDNA Ab titers ((NZBxNZW)F1 mice [5]; laquinimod low dose 0.2 mg/kg): did not inhibit
proteinuria ((NZBxNZW)F1 mice [5]; laquinimod low dose 0.2 mg/kg): prevented increased proteinuria
effect of the combination of laquinimod, MMF and steroids on active lupus nephritis ([6]; 0.5 mg and 1.0 mg laquinimod daily with MMF and steroids): significantly more than the additive effect of each agent alone
complete response (CR) [6, 7]: results in a complete response
partial response (PR) [6, 7]: results in a partial response
proteinuria [6, 7]: reduces proteinuria
tolerability and toxicity [6, 7]: well tolerated and has no toxicity
treatment of active lupus nephritis [6, 7]: effective to treat active lupus nephritis
urinary sediments [6, 7]: eliminates urinary sediments
decrease of glomerular filtration rate (GFR) as compared to baseline [6, 8]: no more than 10%
glomerular filtration rate (GFR) reached [6, 8]: greater than 70 ml/min/1.73 m^2
increase of glomerular filtration rate (GFR) as compared to baseline [6, 8]: at least 25%

O=P1(N(CCCl)CCCl)NCCCO1 (stereo not drawn) [CTX, cyclophosphamide]
proteinuria (PU) ((NZBxNZW)F1 mice [1]): significantly diminished
immune complex deposition (ICD) in kidney ((NZBxNZW)F1 mice [1]): significantly inhibited

COc1c(C)c2c(c(O)c1C/C=C(\C)CCC(=O)OCCN1CCOCC1)C(=O)OC2 [MMF, 2-morpholinoethyl (E)-6-(1,3-dihydro-4-hydroxy-6-methoxy-7-methyl-3-oxo-5-isogenzofuranyl)-4-methyl-4-hexenoate, reference compound]
lung BALT hyperplasia (histopathology) ([2]; MMF 100 mg/kg p.o. vs vehicle): significant difference
kidney glomerulonephritis (histopathology) [2]: significant reductions
salivary gland inflammation (histopathological scoring) [2]: significant reduction
